Results as given in the supplement of paper PMC10307832.

Key:
Assay in all cases: relative viability (nuclei count vs DMSO), 5 days (fraction); higher = more cells survive
KIN001-266 + Olaparib = compound: CCN1CCC(CC1)N2C=C(N=N2)CNC3=CC4=C(C(=CN=C4C(=C3)Cl)C#N)NC5=CC(=C(C=C5)F)Cl [KIN001-266] + O=C(c1cc(Cc2n[nH]c(=O)c3ccccc23)ccc1F)N1CCN(C(=O)C2CC2)CC1 [Olaparib] (partner 8 µM)
In short: (§1)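 Each reported value is a median over duplicate plates. It expresses relative viability: treated-well nuclei count divided by vehicle-well nuclei count. Lung cancer cell lines in 1536-well plates were dosed by pin tool a day after seeding, alone with one drug or with a fixed anchor-drug dose plus five library-drug doses (not always all listed) in √10 steps, and nuclei were counted after 5 days.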

KIN001-266 + Palbociclib = compound: CCN1CCC(CC1)N2C=C(N=N2)CNC3=CC4=C(C(=CN=C4C(=C3)Cl)C#N)NC5=CC(=C(C=C5)F)Cl [KIN001-266] + CC(=O)c1c(C)c2cnc(Nc3ccc(N4CCNCC4)cn3)nc2n(C2CCCC2)c1=O [Palbociclib] (partner 0.5 µM)
In short: as §1

KIN001-266 + Alpelisib = compound: CCN1CCC(CC1)N2C=C(N=N2)CNC3=CC4=C(C(=CN=C4C(=C3)Cl)C#N)NC5=CC(=C(C=C5)F)Cl [KIN001-266] + Cc1nc(NC(=O)N2CCC[C@H]2C(N)=O)sc1-c1ccnc(C(C)(C)C(F)(F)F)c1 [Alpelisib] (partner 2 µM)
In short: as §1

KIN001-266 + Pemetrexed = compound: CCN1CCC(CC1)N2C=C(N=N2)CNC3=CC4=C(C(=CN=C4C(=C3)Cl)C#N)NC5=CC(=C(C=C5)F)Cl [KIN001-266] + Nc1nc2[nH]cc(CCc3ccc(C(=O)N[C@@H](CCC(=O)O)C(=O)O)cc3)c2c(=O)[nH]1 [Pemetrexed] (partner 0.2 µM)
In short: as §1

Cell Line	relative viability (KIN001-266 + Olaparib; first compound 0.08 µM)	relative viability (KIN001-266 + Olaparib; first compound 0.253 µM)	relative viability (KIN001-266 + Olaparib; first compound 0.8 µM)	relative viability (KIN001-266 + Olaparib; first compound 2.53 µM)	relative viability (KIN001-266 + Olaparib; first compound 8 µM)	relative viability (KIN001-266 + Palbociclib; first compound 0.08 µM)	relative viability (KIN001-266 + Palbociclib; first compound 0.253 µM)	relative viability (KIN001-266 + Palbociclib; first compound 0.8 µM)	relative viability (KIN001-266 + Palbociclib; first compound 2.53 µM)	relative viability (KIN001-266 + Palbociclib; first compound 8 µM)	relative viability (KIN001-266 + Alpelisib; first compound 0.08 µM)	relative viability (KIN001-266 + Alpelisib; first compound 0.253 µM)	relative viability (KIN001-266 + Alpelisib; first compound 0.8 µM)	relative viability (KIN001-266 + Alpelisib; first compound 2.53 µM)	relative viability (KIN001-266 + Alpelisib; first compound 8 µM)	relative viability (KIN001-266 + Pemetrexed; first compound 0.08 µM)	relative viability (KIN001-266 + Pemetrexed; first compound 0.253 µM)	relative viability (KIN001-266 + Pemetrexed; first compound 0.8 µM)	relative viability (KIN001-266 + Pemetrexed; first compound 2.53 µM)	relative viability (KIN001-266 + Pemetrexed; first compound 8 µM)
NCI-H2023	0.465	0.489	0.528	0.47	0.411	0.333	0.383	0.388	0.289	0.288	0.672	0.64	0.588	0.598	0.618	0.233	0.192	0.296	0.221	0.201
NCI-H2085	0.763	0.791	0.725	0.721	0.598	0.478	0.494	0.504	0.461	0.38	0.941	0.983	0.959	1	0.795	0.896	0.884	0.738	0.908	0.798
NCI-H2087	0.616	0.494	0.654	0.374	0.346	0.241	0.308	0.267	0.26	0.242	1.06	1.02	1.04	1.06	0.758	0.646	0.716	0.637	0.581	0.587
NCI-H2126	0.896	0.925	0.943	0.848	0.842	0.324	0.366	0.387	0.358	0.365	0.77	0.76	0.774	0.703	0.76	0.713	0.73	0.758	0.687	0.619
NCI-H2170	0.634	0.548	0.541	0.515	0.416	0.375	0.433	0.365	0.407	0.373	0.81	0.771	0.776	0.734	0.786	0.256	0.256	0.248	0.248	0.25
NCI-H2228	0.692	0.735	0.682	0.727	0.496	0.836	0.797	0.936	0.763	0.664	0.757	0.95	0.771	0.549	0.622	0.329	0.325	0.35	0.322	0.352
NCI-H2347	0.619	0.593	0.507	0.568	0.479	0.445	0.468	0.401	0.442	0.404	1.03	1.01	1.03	0.996	0.578	0.455	0.463	0.43	0.452	0.433
NCI-H2405	0.889	0.905	0.906	0.853	0.642	0.525	0.567	0.551	0.467	0.441	0.807	0.719	0.759	0.74	0.38	1.08	1.04	1.2	0.84	0.932
NCI-H3122	0.588	0.689	0.636	0.576	0.524	0.155	0.204	0.176	0.233	0.209	0.841	0.909	0.699	0.728	0.767	0.206	0.2	0.198	0.197	0.214
PC-3 [JPC-3]	1.09	1.21	1.08	1.14	0.963	0.539	0.544	0.542	0.537	0.549	1.04	1.02	0.957	0.983	0.896	1.08	1.09	1.14	1.1	0.965
PC-14	0.24	0.354	0.251	0.312	0.141	0.55	0.518	0.594	0.509	0.0895	0.927	0.923	0.918	0.906	0.663	0.161	0.133	0.164	0.113	0.186
RERF-LC-KJ	0.974	0.952	0.858	0.762	0.649	1.14	1.07	1.13	1.11	0.83	0.863	0.785	0.856	0.832	0.569	0.475	0.507	0.475	0.499	0.467
SK-LU-1	0.557	0.427	0.489	0.373	0.416	0.393	0.381	0.421	0.373	0.339	1.24	1.07	1.14	0.927	0.582	1.03	1	1.06	0.962	0.714
SK-MES-1	0.783	0.651	0.73	0.492	0.492	0.331	0.352	0.28	0.336	0.316	0.943	0.813	0.845	0.872	0.76	0.873	0.912	0.903	0.833	0.79
SW 1573	0.459	0.5	0.542	0.404	0.313	0.39	0.376	0.457	0.426	0.356	0.789	0.775	0.709	0.764	0.693	0.809	0.792	0.94	0.713	0.751
